Laboratory results as given in ChEMBL document CHEMBL1909046, “DrugMatrix in vitro pharmacology data”.

Legend:
Acetylcholinesterase = Acetylcholinesterase (Homo sapiens, UniProt P22303); assay: DRUGMATRIX: Acetylcholinesterase enzyme inhibition (substrate: acetylthiocholine); format: cell-based, HEK293; conditions: Not Active = under 50% inhibition at 10 µM
[1] = molecular target: 5-hydroxytryptamine receptor 1B (Rattus norvegicus, UniProt P28564); format: cell membranes, Wistar, Cerebral cortex, Membrane; further: in other assays of this panel Not Active means under 50% inhibition at 10 µM
[2] = DRUGMATRIX: Glutamate, AMPA radioligand binding (ligand: [3H] AMPA); format: cell membranes, Rattus norvegicus, Wistar, Cerebral cortex, Membrane; conditions: Not Active = under 50% inhibition at 10 µM
[3] = molecular target: cGMP-specific 3',5'-cyclic phosphodiesterase (Homo sapiens, UniProt O76074); assay: DRUGMATRIX: Phosphodiesterase PDE5 enzyme inhibition (substrate: [3H]cGMP + cGMP); format: tissue-based, Platelet; conditions: platelet; Not Active = under 50% inhibition at 10 µM
[4] = molecular target: Platelet-activating factor receptor (Homo sapiens, UniProt P25105); format: tissue-based; further: in other assays of this panel Not Active means under 50% inhibition at 10 µM
[5] = molecular target: T1, Muscarinic acetylcholine receptor M2 (Homo sapiens, UniProt P08172); format: cell membranes, CHO-K1, Membrane; conditions: cho-k1; further: in other assays of this panel Not Active means under 50% inhibition at 10 µM
T1 sequence (P08172 whole entry): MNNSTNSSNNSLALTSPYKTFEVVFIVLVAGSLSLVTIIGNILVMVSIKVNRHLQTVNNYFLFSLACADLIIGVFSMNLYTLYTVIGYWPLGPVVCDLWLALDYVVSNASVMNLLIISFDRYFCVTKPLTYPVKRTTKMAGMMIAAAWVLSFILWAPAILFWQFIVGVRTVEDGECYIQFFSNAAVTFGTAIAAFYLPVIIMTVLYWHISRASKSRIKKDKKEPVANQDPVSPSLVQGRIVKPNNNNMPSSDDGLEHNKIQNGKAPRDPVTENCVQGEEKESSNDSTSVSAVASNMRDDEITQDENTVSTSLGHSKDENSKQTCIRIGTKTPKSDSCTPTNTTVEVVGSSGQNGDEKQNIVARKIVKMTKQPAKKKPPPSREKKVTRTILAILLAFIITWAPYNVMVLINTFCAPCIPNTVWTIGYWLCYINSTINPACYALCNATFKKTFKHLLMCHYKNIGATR

Cannabinoid receptor 1 = Cannabinoid receptor 1 (Homo sapiens, UniProt P21554); format: cell membranes, Chem-1, Membrane; conditions: chem-1; further: in other assays of this panel Not Active means under 50% inhibition at 10 µM
Sequence of Cannabinoid receptor 1 (P21554 whole entry): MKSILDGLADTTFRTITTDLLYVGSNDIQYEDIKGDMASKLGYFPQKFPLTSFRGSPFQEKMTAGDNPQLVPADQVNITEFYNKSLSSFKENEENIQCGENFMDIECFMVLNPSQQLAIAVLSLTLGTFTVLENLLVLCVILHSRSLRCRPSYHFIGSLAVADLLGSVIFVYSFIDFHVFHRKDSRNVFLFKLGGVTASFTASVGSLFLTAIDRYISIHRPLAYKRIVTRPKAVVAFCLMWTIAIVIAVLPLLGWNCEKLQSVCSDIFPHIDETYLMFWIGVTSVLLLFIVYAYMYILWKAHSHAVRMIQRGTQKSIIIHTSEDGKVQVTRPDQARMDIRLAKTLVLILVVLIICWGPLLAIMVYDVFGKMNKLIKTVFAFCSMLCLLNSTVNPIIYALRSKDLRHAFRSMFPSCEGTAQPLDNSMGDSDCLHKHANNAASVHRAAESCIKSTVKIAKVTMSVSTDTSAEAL

Sequence of Acetylcholinesterase (P22303 whole entry): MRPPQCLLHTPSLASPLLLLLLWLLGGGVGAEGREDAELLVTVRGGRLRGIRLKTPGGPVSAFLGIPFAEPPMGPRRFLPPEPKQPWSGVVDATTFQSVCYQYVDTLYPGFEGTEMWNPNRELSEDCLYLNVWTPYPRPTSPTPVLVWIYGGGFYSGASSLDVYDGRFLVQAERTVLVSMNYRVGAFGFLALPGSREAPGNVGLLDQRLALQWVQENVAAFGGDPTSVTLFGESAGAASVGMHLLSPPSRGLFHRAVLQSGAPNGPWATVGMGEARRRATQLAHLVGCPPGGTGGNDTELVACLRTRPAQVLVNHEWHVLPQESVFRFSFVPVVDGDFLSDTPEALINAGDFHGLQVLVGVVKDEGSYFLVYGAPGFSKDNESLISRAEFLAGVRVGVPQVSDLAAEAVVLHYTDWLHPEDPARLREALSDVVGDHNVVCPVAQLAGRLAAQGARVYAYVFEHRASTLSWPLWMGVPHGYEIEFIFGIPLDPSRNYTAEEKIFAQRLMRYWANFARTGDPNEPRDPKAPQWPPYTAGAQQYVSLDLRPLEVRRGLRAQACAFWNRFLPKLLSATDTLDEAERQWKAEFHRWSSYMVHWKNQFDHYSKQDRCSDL
Sequence of Platelet-activating factor receptor (P25105 whole entry): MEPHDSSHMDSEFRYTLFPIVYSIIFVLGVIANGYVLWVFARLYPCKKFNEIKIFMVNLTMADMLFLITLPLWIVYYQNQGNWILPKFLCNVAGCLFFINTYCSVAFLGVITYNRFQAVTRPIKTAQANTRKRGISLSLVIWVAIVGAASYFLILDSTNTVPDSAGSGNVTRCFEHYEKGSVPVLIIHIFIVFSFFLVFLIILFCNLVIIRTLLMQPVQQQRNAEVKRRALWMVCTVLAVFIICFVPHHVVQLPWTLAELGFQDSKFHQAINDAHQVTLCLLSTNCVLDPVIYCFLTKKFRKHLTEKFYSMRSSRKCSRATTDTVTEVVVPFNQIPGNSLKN
Sequence of 5-hydroxytryptamine receptor 1B (P28564 whole entry): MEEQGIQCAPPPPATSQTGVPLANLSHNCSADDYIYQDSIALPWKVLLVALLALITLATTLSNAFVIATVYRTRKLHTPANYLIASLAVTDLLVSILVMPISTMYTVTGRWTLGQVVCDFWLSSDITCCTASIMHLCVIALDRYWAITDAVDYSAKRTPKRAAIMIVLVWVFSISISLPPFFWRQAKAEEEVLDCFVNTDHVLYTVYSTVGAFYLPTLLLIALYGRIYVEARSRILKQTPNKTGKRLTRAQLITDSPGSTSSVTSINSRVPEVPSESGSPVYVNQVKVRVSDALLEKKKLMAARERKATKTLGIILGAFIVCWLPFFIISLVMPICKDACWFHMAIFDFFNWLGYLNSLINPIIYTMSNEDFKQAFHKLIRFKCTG

Row | Structure (SMILES) | IC50 (Acetylcholinesterase; hek293) | IC50 [1] | IC50 [2] | Ki [2] | IC50 [3] | IC50 [4] | IC50 [5] | IC50 (Cannabinoid receptor 1) | IC50 (Acetylcholinesterase; read-out: IC50) [nM] | IC50 ([1]; read-out: IC50) [nM] | Ki ([1]; read-out: Ki) [nM]
1 | CC(=O)O[C@]1(C(C)=O)CC[C@H]2[C@@H]3C[C@H](C)C4=CC(=O)CC[C@]4(C)[C@H]3CC[C@@]21C [MEDROXYPROGESTERONE ACETATE] | Not Active | Not Active | Not Active | Not Active | Not Active | Not Active | Not Active | Not Active | – | – | –
2 | CCN1CCCC1CNC(=O)c1cc(S(N)(=O)=O)ccc1OC (configuration not stated) [SULPIRIDE] | Not Active | Not Active | Not Active | Not Active | Not Active | Not Active | Not Active | Not Active | – | – | –
3 | CN1C[C@H](CNC(=O)OCc2ccccc2)C[C@@H]2c3cccc4c3c(cn4C)C[C@H]21 [METERGOLINE] | – | – | Not Active | Not Active | Not Active | Not Active | Not Active | Not Active | 1340 | 19 | 11
4 | CC(Cl)(Cl)Cl [TRICHLOROETHANE] | Not Active | Not Active | Not Active | Not Active | Not Active | Not Active | Not Active | Not Active | – | – | –
5 | CC1=C(/C=C/C(C)=C/C=C/C(C)=C/C(=O)O)C(C)(C)CCC1 [TRETINOIN] | Not Active | Not Active | Not Active | Not Active | Not Active | Not Active | Not Active | Not Active | – | – | –
6 | C=CCc1ccc2c(c1)OCO2 [SAFROLE] | Not Active | Not Active | Not Active | Not Active | Not Active | Not Active | Not Active | Not Active | – | – | –
7 | C1CCN2C[C@@H]3C[C@@H](CN4CCCC[C@@H]34)[C@H]2C1 [SPARTEINE] | Not Active | Not Active | Not Active | Not Active | Not Active | Not Active | Not Active | Not Active | – | – | –
